Assay [1] concerns the target Glyceraldehyde-3-phosphate dehydrogenase (Homo sapiens, UniProt P04406).
In assay [2] the target is Alkaline phosphatase, placental type (Homo sapiens, UniProt P05187). Kind of assay: human placental alkaline phosphatase inhibition – biochemical, luminescence, confirmation (AID 1512). In kind it is functional.
A further assay deals with T-cell. The experiment in a line: loss of vesicle association with mouse CD8+ T cells – mouse 2C CD8+ T cells, flow cytometry, dose response (AID 485284). Format: functional. (In flow cytometry, cells or beads pass a laser one at a time.)
The target of assay [3] is Eukaryotic translation initiation factor 4H (Homo sapiens, UniProt Q15056). Kind of assay: inhibitors of translation initiation factor eIF4H – SAR follow-up (AID 435011). Format: functional.
Assay [4] has as its target Polyadenylate-binding protein 1 (Homo sapiens, UniProt P11940). The experiment in a line: PABP inhibition in translation initiation, SAR follow-up (AID 435018). In kind it is functional.
Assay [5] has as its system Vero. Kind of assay: Vero cell viability after compound exposure – synthesized analogs, set II, cytotoxicity control for West Nile virus antiviral project, SAR follow-up (AID 2402). In kind it is functional. The conditions noted are these: Chlorocebus sabaeus.
Assay [6] is described as follows: A Cell Based Assay for the Identification of Probe candidate Compounds with Anti- Venezuelan Equine Encephalitis virus. [Related pubchem assays: 2409, 2419, 1621, 2238, 2405, 2024, 2065, 2402, 2414, 1635, 1650, 2244 ]. Format: functional.
Assay [7] relates to Vero. Kind of assay: antiviral protection of cells from WNV – synthesized analogs, SAR follow-up (AID 2238). In kind it is functional, cell-based. The conditions noted are these: Chlorocebus sabaeus.
Assay [8] has as its target T1, Ubiquitin-conjugating enzyme E2 N (Homo sapiens, UniProt P61088).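 Also: Dose-response confirmation in a TR-FRET assay detecting UBC13-driven polyubiquitin chain formation, inhibition measured.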
T1 sequence (P61088 whole entry): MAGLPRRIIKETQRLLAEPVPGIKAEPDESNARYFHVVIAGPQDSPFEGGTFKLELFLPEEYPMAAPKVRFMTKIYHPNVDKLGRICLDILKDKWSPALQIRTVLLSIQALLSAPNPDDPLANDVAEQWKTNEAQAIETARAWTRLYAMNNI
Format: functional.

For assay [9], the system named is Vero. The experiment in a line: host cell viability loss, Vero E6 – synthesized analogs, cytotoxicity control for West Nile virus antiviral project, SAR follow-up (AID 2244). In kind it is functional. The conditions noted are these: Chlorocebus sabaeus.
Assay [10] concerns Vero. Kind of assay: Vero 76 cell viability after compound exposure – Vero 76 cells, synthesized analogs, cytotoxicity control for West Nile virus antiviral project, SAR follow-up (AID 2414). The conditions noted are these: Chlorocebus sabaeus. Format: functional.
A further assay deals with Hexokinase (Trypanosoma brucei, UniProt Q38C41). The experiment in a line: Confirmation assay for inhibitors of Trypanosoma brucei hexokinase 1-Analogue-first series. [Related pubchem assays (depositor defined):AID1430, AID1632, AID2516, AID2560, AID2579, AID2600, AID449725, AID492951]. Format: functional.
Sequence of Hexokinase (Q38C41 whole entry): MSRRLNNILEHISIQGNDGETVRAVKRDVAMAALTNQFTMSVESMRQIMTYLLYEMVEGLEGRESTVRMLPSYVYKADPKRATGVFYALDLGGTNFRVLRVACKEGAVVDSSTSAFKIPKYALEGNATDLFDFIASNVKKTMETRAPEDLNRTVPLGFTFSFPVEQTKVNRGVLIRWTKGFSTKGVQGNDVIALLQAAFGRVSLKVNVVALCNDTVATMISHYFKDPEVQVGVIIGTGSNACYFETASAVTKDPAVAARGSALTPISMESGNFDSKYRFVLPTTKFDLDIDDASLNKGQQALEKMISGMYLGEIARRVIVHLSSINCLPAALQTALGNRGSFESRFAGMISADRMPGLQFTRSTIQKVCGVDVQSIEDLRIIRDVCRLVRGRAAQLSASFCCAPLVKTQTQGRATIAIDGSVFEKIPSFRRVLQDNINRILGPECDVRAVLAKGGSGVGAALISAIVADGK
The subject of another assay is INS1. The experiment in a line: INS-1E survival protection against cytokine death – cell-based, luminescence, retest, dose response (AID 449756).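 Also: cell death triggered by IL-1 beta plus TNF-alpha plus IFN-gamma mixture; protective hits raise ATP signal compared with cytokine alone wells.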 Format: functional. The settings on record: Rattus norvegicus.
Assay [11] can be described thus: general cell-killing toxicity readout – plate reader, dry powder samples, cytotoxicity control for PAX8 inhibitor project, dose response (AID 743021). In kind it is functional, cell-based.
A further assay deals with Melanocortin receptor 4 (Homo sapiens, UniProt P32245). Format: functional, cell-based.
The nature of assay [12]: Luminescence Cell-Based Dose Retest to Confirm Inhibitors of Cancer Stem Cells. [Related pubchem assays (depositor defined):AID2717, AID2721]. Format: functional. The settings on record: Homo sapiens.
Assay [13] addresses Multidrug resistance protein CDR2 (Candida albicans (strain SC5314 / ATCC MYA-2876) (Yeast), UniProt P78595). Kind of assay: blockers of Nile Red efflux by Candida CDR2 – S. cerevisiae AD1-8u, singleplex, Cherry Pick2 set, dose response (AID 623994). In kind it is functional. The settings on record: read-out: EC50_MICROM.
Another assay deals with Integrin alpha-4 (Homo sapiens, UniProt P13612). The experiment in a line: allosteric modulators of alpha4 integrin VLA-4 – cell-based, LIBS antibody binding, flow cytometry, SAR follow-up (AID 488791). In kind it is functional.
In the next assay the target is Paired box protein Pax-8 (Homo sapiens, UniProt Q06710). Kind of assay: PAX8 transcriptional activity inhibition in RMG-I – RMG-I cells, luciferase, cherry-pick, dose response (AID 687027).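 Also: luciferase reporter driven by Pax8 target thyroperoxidase promoter measured by SteadyGlo luminescence.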 In kind it is functional, cell-based.
The target of assay [14] is E3 ubiquitin-protein ligase Mdm2/Protein Mdm4 (Homo sapiens, UniProt O15151+Q00987). Kind of assay: disruption of Mdm2/MdmX protein binding – luminescence detection, dose response (AID 504593). Format: functional.
Assay [15] can be described thus: HEK-293T viability loss after treatment – luminescence, T-cell screen hits, cytotoxicity control for TCR NF-kB inhibitor project, dose response (AID 489026).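 Also: cells exposed to compound about 14 hours before the viability readout.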 In kind it is functional, cell-based.
The next assay addresses Trypsin (Sus scrofa, UniProt P00761). The experiment in a line: trypsin protease activity blockade – biochemical, quenched peptide fluorescence, cherry-pick, selectivity assay for Rce1 protease inhibitor project, dose response (AID 488789).
In the next assay the target is CAAX prenyl protease 2 (Saccharomyces cerevisiae S288c, UniProt Q03530). Format: biochemical.
Sequence of CAAX prenyl protease 2 (Q03530 whole entry): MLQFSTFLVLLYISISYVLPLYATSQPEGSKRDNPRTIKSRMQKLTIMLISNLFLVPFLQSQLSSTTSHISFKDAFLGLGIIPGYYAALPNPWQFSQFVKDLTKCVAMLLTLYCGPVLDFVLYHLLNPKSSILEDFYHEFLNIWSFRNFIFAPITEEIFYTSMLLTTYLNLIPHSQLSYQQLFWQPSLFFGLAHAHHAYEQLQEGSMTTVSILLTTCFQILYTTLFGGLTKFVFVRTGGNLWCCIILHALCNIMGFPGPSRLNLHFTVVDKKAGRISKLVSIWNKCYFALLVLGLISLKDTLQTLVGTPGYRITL
The target of another assay is Prothrombin (Bos taurus, UniProt P00735). Kind of assay: thrombin protease inhibitors – biochemical, fluorescence polarization, uHTS hits, dose response (AID 602369). In kind it is functional.
In assay [16] the target is T2, Kappa-type opioid receptor (Homo sapiens, UniProt P41145). Format: functional.
T2 sequence (P41145 whole entry): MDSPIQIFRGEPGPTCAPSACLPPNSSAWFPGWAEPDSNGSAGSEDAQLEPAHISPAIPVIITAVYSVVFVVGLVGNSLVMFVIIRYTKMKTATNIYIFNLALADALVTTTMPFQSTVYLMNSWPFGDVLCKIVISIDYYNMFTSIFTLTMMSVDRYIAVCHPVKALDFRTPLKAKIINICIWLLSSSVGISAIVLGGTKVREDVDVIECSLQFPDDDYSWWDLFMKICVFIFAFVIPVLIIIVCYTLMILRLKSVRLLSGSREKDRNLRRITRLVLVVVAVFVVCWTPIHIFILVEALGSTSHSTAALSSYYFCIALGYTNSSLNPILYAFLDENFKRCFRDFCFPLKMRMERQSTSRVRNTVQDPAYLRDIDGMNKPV
Another assay deals with T3, Insulin-degrading enzyme (Homo sapiens, UniProt P14735).
T3 sequence (P14735 whole entry): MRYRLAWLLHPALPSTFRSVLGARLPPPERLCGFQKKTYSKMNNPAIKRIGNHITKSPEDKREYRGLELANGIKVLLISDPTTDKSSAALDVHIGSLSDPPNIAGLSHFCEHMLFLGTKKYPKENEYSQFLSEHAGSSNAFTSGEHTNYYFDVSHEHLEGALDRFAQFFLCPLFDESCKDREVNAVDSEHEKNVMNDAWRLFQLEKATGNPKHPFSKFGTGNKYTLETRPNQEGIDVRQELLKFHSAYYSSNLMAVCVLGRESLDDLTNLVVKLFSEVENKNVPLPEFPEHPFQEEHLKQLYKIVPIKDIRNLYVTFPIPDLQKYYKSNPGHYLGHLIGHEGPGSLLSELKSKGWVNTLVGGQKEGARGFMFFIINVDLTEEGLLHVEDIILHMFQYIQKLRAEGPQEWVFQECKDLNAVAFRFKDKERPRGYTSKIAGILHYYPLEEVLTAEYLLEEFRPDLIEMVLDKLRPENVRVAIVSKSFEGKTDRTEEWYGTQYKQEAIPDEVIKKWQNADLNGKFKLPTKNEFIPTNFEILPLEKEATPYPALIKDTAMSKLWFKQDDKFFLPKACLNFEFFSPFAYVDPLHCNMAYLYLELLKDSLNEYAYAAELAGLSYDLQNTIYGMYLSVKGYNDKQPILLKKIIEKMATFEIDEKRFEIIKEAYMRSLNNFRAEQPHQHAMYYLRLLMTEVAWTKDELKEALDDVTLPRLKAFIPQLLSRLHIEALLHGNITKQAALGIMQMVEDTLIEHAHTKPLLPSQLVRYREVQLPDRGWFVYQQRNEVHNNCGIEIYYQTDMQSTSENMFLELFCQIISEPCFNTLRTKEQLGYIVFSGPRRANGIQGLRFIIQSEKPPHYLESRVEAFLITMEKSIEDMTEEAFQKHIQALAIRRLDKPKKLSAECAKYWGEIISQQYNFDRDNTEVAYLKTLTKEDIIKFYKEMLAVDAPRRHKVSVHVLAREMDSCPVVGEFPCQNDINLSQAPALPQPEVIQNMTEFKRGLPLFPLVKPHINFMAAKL
The experiment in a line: Dose Response: Fluorescence polarization-based cell-based high throughput dose response assay for inhibitors of insulin-degrading enzyme (IDE). [Related pubchem assays: 434962 (Primary screen (IDE inhibitors in singlicate)), 449730 (Counterscreen (Cytotoxicity in triplicate)), 435028 (Confirmation (IDE inhibitors in triplicate)), 434984 (Summary …. In kind it is functional.

In assay [17] the target is T2, Kappa-type opioid receptor. Format: functional. This is another data set of the same source.
For assay [18], the target named is T4, Rac GTPase-activating protein 1 (Homo sapiens, UniProt Q9H0H5).
T4 sequence (Q9H0H5 whole entry): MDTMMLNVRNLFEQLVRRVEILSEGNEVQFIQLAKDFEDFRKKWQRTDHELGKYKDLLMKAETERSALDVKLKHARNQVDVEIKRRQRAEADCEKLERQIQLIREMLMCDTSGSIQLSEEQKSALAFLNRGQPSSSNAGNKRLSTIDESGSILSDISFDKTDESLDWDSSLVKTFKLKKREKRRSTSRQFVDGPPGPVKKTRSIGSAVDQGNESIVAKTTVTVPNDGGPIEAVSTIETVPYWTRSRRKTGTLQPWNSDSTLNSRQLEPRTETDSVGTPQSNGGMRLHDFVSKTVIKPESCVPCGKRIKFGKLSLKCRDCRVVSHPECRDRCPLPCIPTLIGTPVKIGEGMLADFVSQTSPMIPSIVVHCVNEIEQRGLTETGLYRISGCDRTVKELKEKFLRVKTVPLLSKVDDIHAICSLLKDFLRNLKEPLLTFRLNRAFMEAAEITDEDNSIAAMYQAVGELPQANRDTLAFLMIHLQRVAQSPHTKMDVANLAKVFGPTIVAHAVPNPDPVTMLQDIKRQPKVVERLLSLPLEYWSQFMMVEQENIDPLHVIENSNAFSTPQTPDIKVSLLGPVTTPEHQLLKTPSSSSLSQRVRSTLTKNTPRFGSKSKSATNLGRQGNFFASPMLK
The experiment in a line: blockers of MgcRacGAP-driven Rac1 GTP hydrolysis – biochemical, ADP Hunter fluorescence, primary and confirmatory, confirmation (AID 624330). Format: functional.

Assay [19] addresses 26S proteasome non-ATPase regulatory subunit 14 (Homo sapiens, UniProt O00487). Kind of assay: inhibition of proteasome subunit RPN11 – biochemical, fluorescence polarization, uHTS hits, confirmation (AID 602368). In kind it is functional. A general note: Polarisation of emitted light reports the rotation of a fluorescent probe.
The target of assay [20] is 72 kDa type IV collagenase (Homo sapiens, UniProt P08253). Kind of assay: Dose Response validation of uHTS RPN11 inhibitor hits using a MMP-2 Fluorescence assay. In kind it is functional.
Assay [21] is described as follows: Counterscreen for IDE inhibitors: Luminescence-based cell-based high throughput dose response assay to identify compounds that are cytotoxic to HEK cells. [Related pubchem assays: 434962 (Primary screen (IDE inhibitors in singlicate)), 449730 (Counterscreen (Cytotoxicity in triplicate)), 435028 (Confirmation (IDE inhibitors in triplicate)) …. Format: functional. The conditions noted are these: HEK293.

For the next assay, the target named is Beta-galactosidase (Escherichia coli, UniProt Q8VNN2). In kind it is functional.
Sequence of Beta-galactosidase (Q8VNN2 whole entry): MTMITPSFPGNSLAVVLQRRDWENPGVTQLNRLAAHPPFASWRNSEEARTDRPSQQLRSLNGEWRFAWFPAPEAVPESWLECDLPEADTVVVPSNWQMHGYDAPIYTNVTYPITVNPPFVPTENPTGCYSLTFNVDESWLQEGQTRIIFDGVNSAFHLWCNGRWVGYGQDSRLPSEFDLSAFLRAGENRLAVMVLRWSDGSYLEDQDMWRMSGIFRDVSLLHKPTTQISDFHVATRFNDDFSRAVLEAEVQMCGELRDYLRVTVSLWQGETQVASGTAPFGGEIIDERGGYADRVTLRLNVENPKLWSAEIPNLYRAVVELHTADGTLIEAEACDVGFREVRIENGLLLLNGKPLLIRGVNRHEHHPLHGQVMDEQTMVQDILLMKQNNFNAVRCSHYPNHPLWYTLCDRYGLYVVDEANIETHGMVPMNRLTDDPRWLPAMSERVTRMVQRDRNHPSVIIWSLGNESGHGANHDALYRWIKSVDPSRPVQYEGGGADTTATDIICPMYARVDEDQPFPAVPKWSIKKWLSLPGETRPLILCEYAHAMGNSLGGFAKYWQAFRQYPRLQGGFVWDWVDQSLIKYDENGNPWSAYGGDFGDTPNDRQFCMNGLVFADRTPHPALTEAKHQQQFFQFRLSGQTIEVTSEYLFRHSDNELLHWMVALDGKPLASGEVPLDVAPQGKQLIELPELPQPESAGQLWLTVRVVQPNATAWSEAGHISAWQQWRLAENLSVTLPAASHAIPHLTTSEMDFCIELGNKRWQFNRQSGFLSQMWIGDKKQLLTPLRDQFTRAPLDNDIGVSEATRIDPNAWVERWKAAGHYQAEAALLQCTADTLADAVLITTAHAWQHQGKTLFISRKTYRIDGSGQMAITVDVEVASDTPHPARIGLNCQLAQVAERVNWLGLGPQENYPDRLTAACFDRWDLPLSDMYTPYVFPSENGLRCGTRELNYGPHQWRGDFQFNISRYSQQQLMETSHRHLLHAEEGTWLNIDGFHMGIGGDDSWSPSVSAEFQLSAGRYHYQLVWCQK

The source made the active and inactive calls.

Sequence of Trypsin (P00761 whole entry): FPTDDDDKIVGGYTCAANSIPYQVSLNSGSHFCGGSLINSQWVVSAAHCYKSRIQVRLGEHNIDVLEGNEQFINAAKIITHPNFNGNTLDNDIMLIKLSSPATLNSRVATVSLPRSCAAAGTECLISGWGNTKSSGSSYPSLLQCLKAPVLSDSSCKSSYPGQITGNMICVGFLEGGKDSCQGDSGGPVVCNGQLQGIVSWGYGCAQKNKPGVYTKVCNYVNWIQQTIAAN
Sequence of Multidrug resistance protein CDR2 (P78595 whole entry): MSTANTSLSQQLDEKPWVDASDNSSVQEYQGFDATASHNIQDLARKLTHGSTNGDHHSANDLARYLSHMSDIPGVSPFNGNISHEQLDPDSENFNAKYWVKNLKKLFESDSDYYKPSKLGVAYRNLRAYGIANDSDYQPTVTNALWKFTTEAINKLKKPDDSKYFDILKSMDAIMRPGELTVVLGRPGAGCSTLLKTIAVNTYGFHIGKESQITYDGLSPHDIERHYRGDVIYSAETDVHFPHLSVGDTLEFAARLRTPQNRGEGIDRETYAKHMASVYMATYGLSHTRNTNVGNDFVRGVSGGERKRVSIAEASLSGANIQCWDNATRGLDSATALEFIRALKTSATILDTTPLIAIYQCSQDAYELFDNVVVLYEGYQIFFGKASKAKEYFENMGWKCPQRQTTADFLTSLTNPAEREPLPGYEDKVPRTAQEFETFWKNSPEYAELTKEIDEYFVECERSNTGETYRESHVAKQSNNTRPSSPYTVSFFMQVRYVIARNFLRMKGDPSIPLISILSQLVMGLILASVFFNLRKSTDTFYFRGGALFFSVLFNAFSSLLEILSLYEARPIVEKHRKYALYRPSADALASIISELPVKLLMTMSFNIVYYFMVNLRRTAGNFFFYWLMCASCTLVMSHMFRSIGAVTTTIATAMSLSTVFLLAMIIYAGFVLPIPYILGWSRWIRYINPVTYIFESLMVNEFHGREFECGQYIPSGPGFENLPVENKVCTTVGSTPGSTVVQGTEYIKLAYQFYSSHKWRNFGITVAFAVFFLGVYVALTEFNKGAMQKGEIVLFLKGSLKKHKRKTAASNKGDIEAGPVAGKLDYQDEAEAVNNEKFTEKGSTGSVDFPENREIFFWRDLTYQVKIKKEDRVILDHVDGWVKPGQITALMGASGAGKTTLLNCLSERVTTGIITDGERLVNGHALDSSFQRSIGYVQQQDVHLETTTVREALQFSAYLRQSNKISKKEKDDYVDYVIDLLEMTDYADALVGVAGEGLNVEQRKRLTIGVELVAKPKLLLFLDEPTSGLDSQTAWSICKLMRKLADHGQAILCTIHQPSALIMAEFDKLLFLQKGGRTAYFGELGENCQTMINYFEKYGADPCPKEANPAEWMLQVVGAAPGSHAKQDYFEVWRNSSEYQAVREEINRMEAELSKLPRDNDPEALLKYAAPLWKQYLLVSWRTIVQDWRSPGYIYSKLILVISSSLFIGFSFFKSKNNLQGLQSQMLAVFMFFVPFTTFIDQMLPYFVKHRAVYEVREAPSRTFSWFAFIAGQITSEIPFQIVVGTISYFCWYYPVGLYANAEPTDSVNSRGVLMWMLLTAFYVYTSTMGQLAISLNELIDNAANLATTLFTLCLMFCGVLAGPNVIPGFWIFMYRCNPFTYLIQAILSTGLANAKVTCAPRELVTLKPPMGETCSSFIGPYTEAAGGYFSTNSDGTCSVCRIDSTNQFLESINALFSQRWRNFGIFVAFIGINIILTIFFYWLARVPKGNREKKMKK
Sequence of Glyceraldehyde-3-phosphate dehydrogenase (P04406 whole entry): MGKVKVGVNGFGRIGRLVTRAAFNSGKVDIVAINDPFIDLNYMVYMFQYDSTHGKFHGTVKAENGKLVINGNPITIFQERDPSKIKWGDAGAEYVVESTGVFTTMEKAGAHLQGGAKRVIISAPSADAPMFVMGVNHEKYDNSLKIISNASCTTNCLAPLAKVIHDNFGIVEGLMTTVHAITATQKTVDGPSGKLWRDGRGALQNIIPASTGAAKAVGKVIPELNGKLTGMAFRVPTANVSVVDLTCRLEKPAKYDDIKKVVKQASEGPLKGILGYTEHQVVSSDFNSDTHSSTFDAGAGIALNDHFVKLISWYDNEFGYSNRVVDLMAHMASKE
Sequence of Polyadenylate-binding protein 1 (P11940 whole entry): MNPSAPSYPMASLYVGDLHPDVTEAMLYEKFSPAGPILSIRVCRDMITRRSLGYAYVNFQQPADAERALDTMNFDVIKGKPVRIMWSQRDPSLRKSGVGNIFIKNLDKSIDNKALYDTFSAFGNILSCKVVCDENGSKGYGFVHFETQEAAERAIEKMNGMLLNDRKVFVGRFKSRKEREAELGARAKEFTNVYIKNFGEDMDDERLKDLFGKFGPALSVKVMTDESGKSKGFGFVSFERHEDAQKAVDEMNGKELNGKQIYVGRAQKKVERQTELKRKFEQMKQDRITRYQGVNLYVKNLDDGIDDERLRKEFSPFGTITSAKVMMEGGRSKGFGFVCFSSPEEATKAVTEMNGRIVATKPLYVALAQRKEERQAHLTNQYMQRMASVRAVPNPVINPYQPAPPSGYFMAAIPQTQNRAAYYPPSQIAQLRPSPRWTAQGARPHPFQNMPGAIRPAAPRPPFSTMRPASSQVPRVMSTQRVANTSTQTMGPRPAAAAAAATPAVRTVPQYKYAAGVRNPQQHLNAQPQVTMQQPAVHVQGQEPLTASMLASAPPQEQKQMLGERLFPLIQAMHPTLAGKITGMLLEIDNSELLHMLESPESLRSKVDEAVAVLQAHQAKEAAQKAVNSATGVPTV

For `O=C1c2ccccc2C(=O)N1c1nc(Cc2ccccc2)n[nH]1`, the results for the IC50 in [1] and in assay [2] were > 100 µM (not active) and > 100 µM (inactive), respectively.
On to `O=C(CS(=O)(=O)Cc1ccccc1)N1CCc2ccccc21`, for which, in the assay on T-cell, the EC50 is 14.1 µM (active).
With `COc1cc(Cl)c(C)cc1NC(=O)COC(=O)c1ccc(NC(N)=O)cc1`, the IC50 in [3] and in assay [4] was > 100 µM (inactive) throughout.
As for `CCCN1CCN(CCCNC(=O)c2cc3c(s2)-c2c(C)cccc2OC3)CC1`, the CC50 was 12.3 µM (active) with Vero [5], 12.4 µM (active) in the assay with Vero [9] and 28.4 µM (active) with Vero [10]. Further, the IC50 in assay [6] is 10.4 µM (active); in the assay with Vero [7], > 40 µM (active); in assay [8], > 20 µM (inactive).
With `COc1ccc(C(=O)Nc2cc(OC)ccc2C(=O)O)cc1`, the IC50 at Hexokinase was > 25 µM (inactive).
Regarding `COc1ccc(-c2sc3ccccc3c2-c2ccc(OCCN(C)C)cc2)cc1`, the AC50 in the assay on INS1 is 8.01 µM (active); in assay [11], 1.69 µM (active); in assay [12], 3.45 µM (active); at Paired box protein Pax-8 it was 13 µM (active). Besides, the EC50 on Melanocortin receptor 4 is > 89.2 µM (inactive); in assay [13] it was 57.1 µM (active); at Integrin alpha-4 it was > 57 µM (inactive). Besides, in assay [8], the IC50 is > 20 µM (inactive).
In the case of `CCOC(=O)c1ccc(Nc2nc(N)c3cc(OC)c(OC)cc3n2)cc1`, the IC50 in assay [14] was > 79 µM (inactive); in [15], > 80 µM (inactive).
In the case of `Cc1ccc(C(=O)c2c3ccc(C(F)(F)F)cc3nn2CCC(N)=O)cc1`, the AC50 on Trypsin is > 100 µM (inactive); on CAAX prenyl protease 2, 3.73 µM (active).
In the case of `COc1cc(/C=C2/SC(=S)N(c3c(C)n(C)n(-c4ccccc4)c3=O)C2=O)ccc1O`, the IC50 at Prothrombin is 68.1 µM (active); in assay [16], > 32 µM; on Insulin-degrading enzyme, 7.99 µM (active); in [17] it was 12.7 µM (active); in [18], 43.7 µM (active); in assay [19], 24.4 µM (active). The IC50 in assay [20] was 62.4 µM (active); in assay [21], > 55.7 µM (not active). The EC50 on Beta-galactosidase was 13 µM (active).

By IC50 is commonly meant the concentration needed to halve the response being measured. Usually CC50 stands for the concentration at which the toxic effect on the cells reaches its halfway point. The AC50 is the concentration at which the activity in the assay is half-maximal.

The record behind these values is ChEMBL document CHEMBL1201862, “PubChem BioAssay data set” (2004).
